For test [1], the system named is aptamer for AMP (Apt) (DNA, aptamer) GCGGGCGGTTGTATAGCGG
Put plainly: fluorescence recovery by release of TPE-Am. Conditions: 99% PBS (PBS:DMSO), pH 7.4, 25 °C, aptamer 500 nM.

Test [2] shares this test system. As to the kind of experiment: fluorescence quenching of TPE-Am, lg[(F0-F)/F] against lg[Q] plot. Conditions: Na+, K+ from 10 mM PBS (Na2HPO4, KH2PO4, NaCl, KCl); individual cation concentrations not given; 305 K; PBS:DMSO 99% PBS; TPE-Am aggregated; also measured at 287 and 318 K; apparent.
Setting [3] is: TPE-Am displacement, highest tested 100 nM.

Take `O=[N+]([O-])N=C1NCCN1Cc1ccc(Cl)nc1`: the binding entry in test [1] (setting [3]) is “no”. For the compound `CC1(C)S[C@@H]2[C@H](NC(=O)[C@H](N)c3ccccc3)C(=O)N2[C@H]1C(=O)O`, the binding result in test [1] (TPE-Am 1 μM displaced, 10 nM AMP) was “yes”. For `Nc1ccc(C(=C(c2ccccc2)c2ccccc2)c2ccccc2)cc1`, in test [2], the Kb was determined as 626000 L/mol.

In the case of `CN(C)[C@@H]1C(=O)C(C(N)=O)=C(O)[C@@]2(O)C(=O)C3=C(O)c4c(O)cccc4[C@@](C)(O)[C@H]3C[C@@H]12`, the binding result in test [1] (setting [3]) is “no”.

Consider `O=C(N[C@H](CO)[C@H](O)c1ccc([N+](=O)[O-])cc1)C(Cl)Cl`, for which, in test [1] (setting [3]), the binding result is “no”. As to `CC[C@H]1OC(=O)[C@H](C)[C@@H](O[C@H]2C[C@@](C)(OC)[C@@H](O)[C@H](C)O2)[C@H](C)[C@@H](O[C@@H]2O[C@H](C)C[C@H](N(C)C)[C@H]2O)[C@](C)(O)C[C@@H](C)/C(=N\OCOCCOC)[C@H](C)[C@@H](O)[C@]1(C)O`, the binding entry in test [1] (setting [3]) is recorded as “no”.

Source of the values: article PMC10216731 (2023).
